According to ChEMBL document CHEMBL2010689 (J Med Chem, 2012):
The source made the active and inactive calls. The rule behind the calls is not given here.

Legend:
[1] = biological target: Tyrosine-protein kinase Blk (Mus musculus, UniProt P16277); assay: Inhibition of mouse BLK using ATP as substrate
Adenosine receptor A2a = Adenosine receptor A2a (Homo sapiens, UniProt P29274); assay: Inhibition of adenosine A2A receptor at 10 uM
[2] = biological target: Fibroblast growth factor receptor 3 (Homo sapiens, UniProt P22607); assay: Inhibition of human FGFR3 using ATP as substrate
[3] = biological target: Platelet-derived growth factor receptor alpha (Homo sapiens, UniProt P16234); assay: Inhibition of human PDGFRalpha using ATP as substrate
A-375 [4] = assay: Antitumor activity against human A375 cells xenografted in athymic nude mouse assessed as tumor growth inhibition at 10 mg/kg, po bid measured on day 29 relative to control; format: functional; settings: A-375, 696 h, read-out: GI
A-375 [5] = assay: Antitumor activity against human A375 cells xenografted in athymic nude mouse assessed as tumor growth inhibition at 1 mg/kg, po bid measured on day 29 relative to control; format: functional; settings: A-375, 696 h, read-out: GI
P388 [6] = assay: Antitumor activity against mouse P388 cells xenografted in DBA/2 mouse assessed as mean survival at 30 mg/kg, po bid for 7 days followed by readministeration after 14 days; format: functional
[7] = biological target: Tyrosine-protein kinase BTK (Homo sapiens, UniProt Q06187); assay: Inhibition of human BTK using ATP as substrate
P388 [8] = assay: Antitumor activity against mouse P388 cells xenografted in DBA/2 mouse assessed as mean survival at 30 mg/kg, po bid for 14 days followed by readministeration after 7 days; format: functional
Mus musculus = assay: Toxicity in athymic nude mouse bearing human A375 cells assessed as body weight change at 0.1 to 10 mg/kg, po; format: organism-based, A-375; design: dose 0.1-10 mg/kg, route oral; settings: in vivo
[9] = Antitumor activity against human U251MG cells xenografted in athymic nude mouse assessed as complete tumor regression at 1 mg/kg, po bid; format: functional, U-251
[10] = Antiangiogenic activity in HMVEC assessed as inhibition of FGF-induced survival; format: functional, Homo sapiens
[11] = Antitumor activity against human U251MG cells xenografted in athymic nude mouse assessed as partial tumor regression at 3 mg/kg, po bid; format: functional, U-251
[12] = Half life in Sprague-Dawley rat at 5 mg/kg, po; format: ADME, organism-based; design: dose 5 mg/kg, route oral; settings: in vivo
[13] = biological target: Casein kinase I isoform alpha (Homo sapiens, UniProt P48729); assay: Inhibition of CK1 using ATP as substrate
[14] = Antitumor activity against human U251MG cells xenografted in athymic nude mouse assessed as partial tumor regression at 10 mg/kg, po bid; format: functional, U-251
A-375 [15] = assay: Antitumor activity against human A375 cells xenografted in athymic nude mouse assessed as partial tumor regression at 1 mg/kg, po bid; format: functional
[16] = Antiangiogenic activity in BAEC assessed as inhibition of VEGF-induced proliferation; format: functional; settings: Bos taurus
[17] = biological target: Voltage-gated inwardly rectifying potassium channel KCNH2 (Homo sapiens, UniProt Q12809); assay: Inhibition of human Erg expressed CHO cells; format: cell-based
[18] = biological target: Glycogen synthase kinase-3 beta (Homo sapiens) (UniProt P49841); assay: Inhibition of GSK3beta at 1 uM
[19] = Cmax in athymic nude mouse tumor xenografted with human U251MG cells at 30 mg/kg, po; format: ADME, organism-based, Neoplasm, U-251; design: dose 30 mg/kg, route oral
[20] = biological target: Substance-K receptor (Homo sapiens) (UniProt P21452); assay: Inhibition of neurokinin NK2 receptor at 10 uM
[21] = Plasma protein binding in human; format: ADME, cell-free; settings: read-out: PPB (converted)
[22] = biological target: Substance-P receptor (Homo sapiens) (UniProt P25103); assay: Inhibition of neurokinin NK1 receptor at 10 uM
[23] = Metabolic stability in dog liver S9 fraction assessed as compound remaining after 2 hrs; format: ADME, subcellular, Canis lupus familiaris; settings: read-out: Stability
HUVEC = assay: Antiangiogenic activity in HUVEC assessed as inhibition of VEGF-induced proliferation; format: functional, cell-based; settings: Homo sapiens
[24] = Antiangiogenic activity in BAEC assessed as inhibition of FGF-induced survival; format: functional, Bos taurus
[25] = Antitumor activity against human U251MG cells xenografted in athymic nude mouse assessed as tumor growth inhibition at 1 mg/kg, po bid measured on day 29 relative to control; format: functional; settings: U-251, 696 h, read-out: GI
[26] = Volume of distribution in cynomolgus monkey at 0.5 mg/kg, iv; format: ADME, organism-based, Macaca fascicularis; design: dose 0.5 mg/kg, route intravenous; settings: in vivo
[27] = biological target: Vascular endothelial growth factor receptor 2 (Homo sapiens, UniProt P35968)
Description: Inhibition of human recombinant VEGF-R2 expressed in baculovirus expression system using GST-PLCgamma as substrate after 1 hr by time-resolved fluorescence analysis

A-375 [28] = assay: Antitumor activity against human A375 cells xenografted in athymic nude mouse assessed as tumor growth inhibition at 0.3 mg/kg, po bid measured on day 29 relative to control; format: functional; settings: A-375, 696 h, read-out: GI
[29] = biological target: Proto-oncogene tyrosine-protein kinase receptor Ret (Homo sapiens, UniProt P07949); assay: Inhibition of human RET using ATP as substrate
Cytochrome P450 2D6 = Cytochrome P450 2D6 (Homo sapiens, UniProt P10635); assay: Inhibition of CYP2D6; format: ADME
[30] = Toxicity in dog purkinje fibres assessed as drug-induced QT interval change; format: tissue-based, Canis lupus familiaris, Purkinje fiber

Adenosine receptor A2a, sequence (P29274 whole entry): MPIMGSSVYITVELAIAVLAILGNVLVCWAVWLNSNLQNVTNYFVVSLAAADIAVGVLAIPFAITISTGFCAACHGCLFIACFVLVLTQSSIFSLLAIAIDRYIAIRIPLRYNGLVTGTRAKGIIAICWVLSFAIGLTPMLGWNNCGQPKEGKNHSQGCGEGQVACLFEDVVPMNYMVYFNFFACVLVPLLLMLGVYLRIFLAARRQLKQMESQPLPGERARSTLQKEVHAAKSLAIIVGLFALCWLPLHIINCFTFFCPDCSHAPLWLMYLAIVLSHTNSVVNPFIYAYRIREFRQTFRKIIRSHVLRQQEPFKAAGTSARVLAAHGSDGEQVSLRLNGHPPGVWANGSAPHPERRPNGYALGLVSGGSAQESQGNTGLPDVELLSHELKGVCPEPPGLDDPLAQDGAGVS
Glycogen synthase kinase-3 beta (Homo sapiens), sequence (P49841 whole entry, looked up): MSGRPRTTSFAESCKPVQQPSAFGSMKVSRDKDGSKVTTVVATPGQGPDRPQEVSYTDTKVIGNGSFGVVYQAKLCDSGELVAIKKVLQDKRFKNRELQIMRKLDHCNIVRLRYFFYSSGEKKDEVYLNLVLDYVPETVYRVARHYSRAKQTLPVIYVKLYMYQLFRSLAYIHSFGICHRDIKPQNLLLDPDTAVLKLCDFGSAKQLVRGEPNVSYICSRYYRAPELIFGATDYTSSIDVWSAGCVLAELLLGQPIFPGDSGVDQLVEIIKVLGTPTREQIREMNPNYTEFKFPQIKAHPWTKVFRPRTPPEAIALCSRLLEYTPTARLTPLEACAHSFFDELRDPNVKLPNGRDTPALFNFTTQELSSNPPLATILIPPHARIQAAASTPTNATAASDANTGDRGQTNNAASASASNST
Fibroblast growth factor receptor 3, sequence (P22607 whole entry): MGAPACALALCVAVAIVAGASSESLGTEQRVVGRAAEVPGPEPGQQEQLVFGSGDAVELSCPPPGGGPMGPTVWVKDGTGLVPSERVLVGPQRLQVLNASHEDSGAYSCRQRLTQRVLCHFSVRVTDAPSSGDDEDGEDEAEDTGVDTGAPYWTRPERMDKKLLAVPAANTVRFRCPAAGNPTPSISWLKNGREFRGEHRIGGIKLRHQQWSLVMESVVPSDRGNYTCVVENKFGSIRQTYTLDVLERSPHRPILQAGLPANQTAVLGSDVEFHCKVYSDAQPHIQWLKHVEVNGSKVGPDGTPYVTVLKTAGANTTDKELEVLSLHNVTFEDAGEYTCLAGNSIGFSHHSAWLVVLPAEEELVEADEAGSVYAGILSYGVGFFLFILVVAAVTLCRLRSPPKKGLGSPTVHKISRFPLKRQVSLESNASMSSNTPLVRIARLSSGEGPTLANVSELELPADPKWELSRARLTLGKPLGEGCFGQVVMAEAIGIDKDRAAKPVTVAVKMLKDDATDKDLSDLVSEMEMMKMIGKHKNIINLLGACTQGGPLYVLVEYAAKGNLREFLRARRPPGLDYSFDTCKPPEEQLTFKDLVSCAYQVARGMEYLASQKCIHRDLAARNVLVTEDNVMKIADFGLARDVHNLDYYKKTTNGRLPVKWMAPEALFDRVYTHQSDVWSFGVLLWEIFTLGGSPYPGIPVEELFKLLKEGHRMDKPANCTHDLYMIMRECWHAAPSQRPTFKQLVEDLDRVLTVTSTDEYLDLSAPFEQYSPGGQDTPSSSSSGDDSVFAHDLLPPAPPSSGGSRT
Tyrosine-protein kinase Blk, sequence (P16277 whole entry): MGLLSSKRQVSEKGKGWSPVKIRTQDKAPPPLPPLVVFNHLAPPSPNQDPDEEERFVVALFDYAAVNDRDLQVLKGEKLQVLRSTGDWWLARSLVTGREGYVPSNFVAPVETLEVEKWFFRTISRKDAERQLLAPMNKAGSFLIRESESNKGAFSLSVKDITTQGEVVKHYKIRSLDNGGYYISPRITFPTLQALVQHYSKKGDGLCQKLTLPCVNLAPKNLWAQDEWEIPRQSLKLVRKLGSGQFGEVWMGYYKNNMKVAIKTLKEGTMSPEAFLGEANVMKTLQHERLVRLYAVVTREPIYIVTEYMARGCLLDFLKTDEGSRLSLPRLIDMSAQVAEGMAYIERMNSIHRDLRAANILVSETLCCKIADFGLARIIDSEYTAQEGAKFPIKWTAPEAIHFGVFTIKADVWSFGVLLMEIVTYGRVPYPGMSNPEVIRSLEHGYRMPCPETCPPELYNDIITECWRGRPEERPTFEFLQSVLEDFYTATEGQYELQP
Casein kinase I isoform alpha, sequence (P48729 whole entry, canonical isoform): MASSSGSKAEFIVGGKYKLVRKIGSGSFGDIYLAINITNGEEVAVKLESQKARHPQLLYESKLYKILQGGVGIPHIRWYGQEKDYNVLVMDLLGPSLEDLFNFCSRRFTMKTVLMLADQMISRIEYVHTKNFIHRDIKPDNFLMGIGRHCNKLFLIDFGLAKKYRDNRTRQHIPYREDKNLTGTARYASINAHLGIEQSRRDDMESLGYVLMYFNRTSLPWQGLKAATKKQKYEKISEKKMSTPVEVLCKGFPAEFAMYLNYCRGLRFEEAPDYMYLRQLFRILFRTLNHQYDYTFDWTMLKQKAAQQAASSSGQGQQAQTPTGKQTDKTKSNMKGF
Voltage-gated inwardly rectifying potassium channel KCNH2, sequence (Q12809 whole entry): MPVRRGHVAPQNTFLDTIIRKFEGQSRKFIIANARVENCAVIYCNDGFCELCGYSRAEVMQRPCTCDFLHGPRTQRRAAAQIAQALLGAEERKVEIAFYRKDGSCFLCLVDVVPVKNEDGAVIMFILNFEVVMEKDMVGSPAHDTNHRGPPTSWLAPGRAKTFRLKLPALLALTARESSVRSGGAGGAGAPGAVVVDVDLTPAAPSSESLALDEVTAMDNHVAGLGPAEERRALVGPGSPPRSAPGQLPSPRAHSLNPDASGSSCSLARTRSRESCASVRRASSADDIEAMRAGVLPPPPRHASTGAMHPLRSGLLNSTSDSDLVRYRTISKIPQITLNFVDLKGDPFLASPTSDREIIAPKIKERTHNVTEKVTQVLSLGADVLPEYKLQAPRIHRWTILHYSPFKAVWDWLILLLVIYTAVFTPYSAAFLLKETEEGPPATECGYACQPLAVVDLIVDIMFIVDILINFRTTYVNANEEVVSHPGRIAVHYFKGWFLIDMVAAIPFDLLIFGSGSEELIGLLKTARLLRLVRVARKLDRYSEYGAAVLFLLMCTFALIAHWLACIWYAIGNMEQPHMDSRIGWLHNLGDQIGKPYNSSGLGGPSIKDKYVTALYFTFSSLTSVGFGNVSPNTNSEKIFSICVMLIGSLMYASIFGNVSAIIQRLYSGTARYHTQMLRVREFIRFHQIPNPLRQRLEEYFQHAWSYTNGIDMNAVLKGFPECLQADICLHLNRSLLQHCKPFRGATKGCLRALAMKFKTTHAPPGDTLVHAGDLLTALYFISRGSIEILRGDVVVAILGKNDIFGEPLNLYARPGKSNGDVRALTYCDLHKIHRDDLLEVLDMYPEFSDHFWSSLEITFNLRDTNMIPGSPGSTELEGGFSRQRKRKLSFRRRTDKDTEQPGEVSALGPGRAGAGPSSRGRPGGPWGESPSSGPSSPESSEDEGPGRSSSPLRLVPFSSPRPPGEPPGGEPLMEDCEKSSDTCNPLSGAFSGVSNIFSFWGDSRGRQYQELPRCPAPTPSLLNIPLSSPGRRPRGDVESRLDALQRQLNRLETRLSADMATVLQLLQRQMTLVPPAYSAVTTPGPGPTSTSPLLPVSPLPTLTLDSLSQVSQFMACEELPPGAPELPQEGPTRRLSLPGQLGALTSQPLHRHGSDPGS
Proto-oncogene tyrosine-protein kinase receptor Ret, sequence (P07949 whole entry): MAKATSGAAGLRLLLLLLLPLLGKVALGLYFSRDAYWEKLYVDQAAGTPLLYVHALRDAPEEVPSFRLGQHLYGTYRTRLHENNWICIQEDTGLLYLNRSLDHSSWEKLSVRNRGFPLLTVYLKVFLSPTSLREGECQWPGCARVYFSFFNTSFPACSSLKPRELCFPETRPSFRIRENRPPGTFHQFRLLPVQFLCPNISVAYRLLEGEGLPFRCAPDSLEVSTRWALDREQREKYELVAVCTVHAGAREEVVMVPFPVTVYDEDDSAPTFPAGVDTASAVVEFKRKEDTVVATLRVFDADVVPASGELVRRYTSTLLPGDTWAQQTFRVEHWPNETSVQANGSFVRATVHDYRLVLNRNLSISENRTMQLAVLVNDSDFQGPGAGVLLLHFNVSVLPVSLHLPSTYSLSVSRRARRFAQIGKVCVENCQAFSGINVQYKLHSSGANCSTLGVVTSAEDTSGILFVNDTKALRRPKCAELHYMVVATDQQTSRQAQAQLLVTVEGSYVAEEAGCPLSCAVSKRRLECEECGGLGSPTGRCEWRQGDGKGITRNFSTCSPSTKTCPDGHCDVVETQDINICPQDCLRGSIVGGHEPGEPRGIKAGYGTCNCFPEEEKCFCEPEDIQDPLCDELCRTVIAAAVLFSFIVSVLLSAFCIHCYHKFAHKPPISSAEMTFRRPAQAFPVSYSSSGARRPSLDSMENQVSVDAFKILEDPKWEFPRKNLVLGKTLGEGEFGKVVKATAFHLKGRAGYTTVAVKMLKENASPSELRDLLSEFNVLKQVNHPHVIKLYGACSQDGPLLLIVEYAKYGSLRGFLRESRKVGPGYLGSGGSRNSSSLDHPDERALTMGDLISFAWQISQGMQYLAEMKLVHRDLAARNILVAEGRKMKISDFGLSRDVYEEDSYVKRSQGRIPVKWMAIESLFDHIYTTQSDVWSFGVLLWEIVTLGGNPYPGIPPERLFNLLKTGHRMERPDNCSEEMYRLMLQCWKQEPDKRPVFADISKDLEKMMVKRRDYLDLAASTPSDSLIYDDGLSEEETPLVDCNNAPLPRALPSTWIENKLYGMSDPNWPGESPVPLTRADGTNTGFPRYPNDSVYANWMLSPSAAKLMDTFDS

SMILES: CC(C)Cn1c2ccc(Nc3ncccn3)cc2c2c3c(c4c(c21)CCc1nn(C)cc1-4)C(=O)NC3 [CEP-11981]
- IC50 [1]: 8 nM
- inhibition (Adenosine receptor A2a): > 80%
- IC50 [2]: 89 nM
- IC50 [3]: 246 nM
- inhibition in vivo at 10 mg/kg (A-375 [4]): 98%
- inhibition in vivo at 1 mg/kg (A-375 [5]): 73%
- MSD (P388 [6]): 23 days
- IC50 [7]: 93 nM
- MSD (P388 [8]): 27.5 days
- Activity (Mus musculus): Non-toxic
- Activity [9]: 0%
- EC50 [10]: 8 nM
- Activity [11]: 0%
- half-life [12]: 3 h
- IC50 [13]: 48 nM
- Activity [14]: 20%
- Activity (A-375 [15]): 10%
- EC50 [16]: 8 nM
- IC50 [17]: 20000 nM
- inhibition [18]: Active
- Cmax [19]: 401 ng/g
- inhibition [20]: > 80%
- fraction unbound [21]: 0.05
- inhibition [22]: > 80%
- remaining at 2 h [23]: 65%
- EC50 (HUVEC): 8 nM
- EC50 [24]: 8 nM
- inhibition in vivo at 1 mg/kg [25]: 43%
- Vd [26]: 2.6 L/kg
- IC50 [27]: 4 nM
- inhibition in vivo at 0.3 mg/kg (A-375 [28]): 71%
- IC50 [29]: 5 nM
- IC50 (Cytochrome P450 2D6): > 30000 nM
- Activity [30]: Non-toxic
